Test [1] concerns the target T1, Tryptase (Homo sapiens, UniProt Q15661). Kind of test: In Vitro Tryptase Inhibition Assay (hydrolysis of tosyl-GlyProLys-p-nitroanilide, Tris-HCl pH 8.2). Format: biochemical. The procedure: Table II lists the inhibition constants (Ki ', micromolar (μM)) which were determined for several of the compounds of the present invention, wherein R^1 is hydrogen; R^2 is hydrogen; R^3 is --(CH2)3 --NH--(C=NH)--NH2; R^4 and R^5, together with the nitrogen and carbon to which they are attached form a five-membered heterocycle; and R^6 is hydrogen. […] Unlike Ki, Ki ' may not be a true dissociation constant of the enzyme-inhibitor complex; Ki ' is equal to Ki for a noncompetitive inhibitor and is directly proportional to Ki for competitive and uncompetitive inhibitors.
Generally, the assay conditions are light sensitive and variations in ambient light intensity may affect assay reproducibility. As a result of this potential source of error, some assays were run under dark conditions. The Ki 's reported in Tables II and III without parentheses were determined under conditions of ambient light. Ki 's reported with parentheses were determined under "dark" conditions as defined above.

The test system of test [2] is allergic sheep. Kind of test: Allergic sheep model: airway hyperresponsiveness to carbachol (PC400) 24 hours after antigen challenge. Format: in vivo. The procedure: (§1) The initial asthmatic response can be evaluated in guinea pigs, and dogs, and particularly, with a basenji-greyhound cross strain which develops nonspecific airway hyperresponsiveness to numerous nonallergenic substances, such as methacholine and citric acid. […] In dual responding animals, the initial asthmatic response (IAR) is followed by a late asthmatic response (LAR) at 6-8 hours post-exposure.
(§2) The allergic sheep model was used to evaluate the potential antiasthmatic effects of the compounds of the present invention.
(§3) The allergic sheep model of asthma was employed in these studies. These methods have been published previously (see Abraham et al. (1983) Am. Rev. Respir. Dis. 128:839-844; Allegra et al. (1983) J. Appl. Physiol. 55:726-730; Russi et al. (1985) J. Appl. Physiol. 59:1416-1422; Soler et al. ((1989) J. Appl. Physiol. 67:406-413. Each sheep served as its own control. Body weights for these animals ranged from 20-50 kilograms.
(§4) In these studies, 9 mg of Compound 3 of Tables I and II was dissolved in 3 mL buffered saline and the total solution delivered as an aerosol 0.5 hours before, 4 hours after, and 24 hours after antigen challenge (total dose=27; n=6). In the control (vehicle only) trial, antigen challenge caused peak early and late increases above baseline in specific lung resistance (SRL) of 374±104% and 212±21% (mean±SE). In contrast, when the sheep were treated with Compound 3 of Tables I and II, the early and late increases in SRL were 280±39% and 72±9% (p <0.05 vs. control, Wilcoxon signed rank test). The peak early response was taken as the average of the maximum values occurring immediately post-challenge. Peak late responses were calculated by averaging the maximum response values obtained for each animal within the 6-8 hour time period. This approach is conservative and eliminates the possible reduction in the late response due simply to averaging.
Twenty-four hours after antigen challenge in both the control and drug trial, the sheep developed airway hyperresponsiveness. […] Baseline PC400 was 22.0±3.7 breath units in the control trial, falling to 9.1±1.3 breath units after antigen challenge (p<0.05 vs. baseline).

In test [3] the target is T1, Tryptase. The experiment in a line: biochemical. Conditions: for Ki: Table IV. The procedure:
Compounds (approx. 1 mg) to be assayed against tryptase were reconstituted in dimethylsulfoxide (DMSO) and diluted 1:10 into buffer containing 50 millimolar (mM) Tris-HCl at pH 8.2, and containing 100 mM NaCl, 0.05% Tween-20. Seven additional 3-fold dilutions were made from the initial dilution into the same buffer supplemented with 10% DMSO. Aliquots (50 μl) from each of the eight dilutions in the series were transferred to individual wells in a 96-well U-bottom microtiter plate. Tryptase (25 μl; 0.5 nM final concentration) was added to each well and the samples were mixed and incubated for 1 hr at room temperature under either ambient light (i.e., the light available in the room during the experiment) or under controlled "light" or "dark" conditions. "Light conditions" refers herein to a light intensity of 400-450 footcandles from a fluorescent bulb. "Dark" refers herein to sample containers wrapped in aluminum foil. The enzyme reaction was then initiated with the addition of the synthetic tripeptide substrate, tosyl-GlyProLys-p-nitroanilide (25 μl; 0.5 mM final concentration). The microtiter plates were immediately transferred to a UV/MAX Kinetic Microplate Reader (Molecular Devices) and hydrolysis of the chromogenic substrate was followed spectrophotometrically at […] for 5 minutes. […] Initial velocity measurements, calculated from progress curves by a kinetic analysis program called "BatchKi" (available commercially from Biokin Ltd., of Madison Wis.), were used to determine apparent inhibition constants for each inhibitor. This program is designed to perform regressions and curve-fitting of non-linear data.
Compound 3 was assayed against tryptase at four different pH's in the following buffer system: 120 mM NaCl, 2.7 mM KCl, 0.13 mM NaH2 PO4, 0.896 mM Na2 HPO4. The final buffer system used included 0.05% of Tween-20.
Thus, the assay procedure described above was performed wherein the dilution of Compound 3 and the addition of tryptase was done under ambient light at room temperature (22°-26° C.). The assay plate was wrapped in aluminum foil for a 1-hr incubation before substrate addition, which was also done under ambient light.

Test [4] has as its system allergic sheep. Kind of test: Allergic sheep model of asthma: specific lung resistance (SRL) after antigen challenge. Format: in vivo. Conditions: 9 mg aerosol 0.5 h before, 4 h and 24 h after antigen challenge. How it is done:
as §1, §2, §3, §4

Setting [5] is: Table II, asterisk: "light" conditions, 400-450 footcandles.
Where [6] appears, read: Table II, parentheses: "dark" conditions (aluminum foil).
The mark [7] stands for this setting: Table II, ambient light (no parentheses).
Where [8] appears, read: Table III, asterisk: "light" conditions, 400-450 footcandles.
Where [9] appears, read: Table III, parentheses: "dark" conditions (aluminum foil).

T1 sequence (Q15661 31-275): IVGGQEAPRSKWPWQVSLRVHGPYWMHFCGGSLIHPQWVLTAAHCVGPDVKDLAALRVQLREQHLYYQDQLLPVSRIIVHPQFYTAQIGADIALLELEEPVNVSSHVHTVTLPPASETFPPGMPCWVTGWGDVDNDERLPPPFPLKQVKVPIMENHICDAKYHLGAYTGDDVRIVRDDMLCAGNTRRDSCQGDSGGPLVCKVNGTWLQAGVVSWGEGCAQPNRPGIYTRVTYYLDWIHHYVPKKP

As to `N=C(N)NCCC[C@H](NC(=O)c1cc2ccccc2cc1O)C(=O)N1CCC[C@H]1C(N)=O` [Compound 14], the Ki on Tryptase [1] (setting [5]) is 752 µM; on Tryptase [1] (setting [6]) it was 707 µM.

As to `COC(=O)[C@@H]1CCCN1C(=O)[C@H](CCCNC(=N)N)NC(=O)c1c(O)ccc2ccccc12` [Compound 8], at Tryptase [1] (setting [7]), the Ki amounted to 208 µM.

For the compound `N=C(N)Nc1ccc(C[C@H](NC(=O)c2ccc3ccccc3c2O)C(=O)N2CCC[C@H]2C(N)=O)cc1` [Compound 10], the Ki on Tryptase [1] (setting [8]) was found to be 2.5 µM; on Tryptase [1] (setting [9]), 18 µM.

Consider `Cc1ccc2c(O)c(C(=O)N[C@@H](CCCNC(=N)N)C(=O)N3CCC[C@H]3C(N)=O)cnc2n1` [Compound 17], for which the inhibition constant (Ki) on Tryptase [1] (setting [7]) is 900 µM.

For `N=C(N)NCCC[C@H](NC(=O)c1ccccc1O)C(=O)N1CCC[C@H]1C(N)=O` [Compound 19], the results for the Ki on Tryptase [1] (setting [5]) and at Tryptase [1] (setting [6]) were 8 µM and 2450 µM, respectively.

Consider `N=C(N)NCCC[C@H](NC(=O)c1cc(O)ccc1O)C(=O)N1CCC[C@H]1C(N)=O` [Compound 20], for which the Ki at Tryptase [1] (setting [7]) was determined as 20 µM.

Take `N=C(N)NCCC[C@H](NC(=O)c1cccnc1O)C(=O)N1CCC[C@H]1C(N)=O` [Compound 18]: the inhibition constant Ki at Tryptase [1] (setting [7]) is 452 µM.

As to `N=C(N)NCCC[C@H](NC(=O)c1ccc2ccccc2c1O)C(=O)N1CCC[C@H]1C(=O)N1CCCC(C(N)=O)C1` (stereo partly shown) [Compound 6], the Ki on Tryptase [1] (setting [7]) is 82 µM.

As to `N=C(N)NCCC[C@H](NC(=O)c1ccc2ccccc2c1O)C(=O)N1C[C@H](O)C[C@H]1C(N)=O` [Compound 11], the Ki on Tryptase [1] (setting [8]) was 0.3 µM; at Tryptase [1] (setting [9]), 40 µM.

Take `COC(=O)[C@@H]1C[C@@H](O)CN1C(=O)[C@H](CCCNC(=N)N)NC(=O)c1c(O)ccc2ccccc12` [Compound 4]: the Ki at Tryptase [1] (Table III, ambient light (no parentheses)) is 749 µM.

For `N=C(N)NCCC[C@H](NC(=O)c1ccc2ccccc2c1O)C(=O)N1CCC[C@@H]1C(N)=O` [Compound 12], the results for the Ki at Tryptase [1] (setting [8]) and on Tryptase [1] (setting [9]) were 2.5 µM and 818 µM, respectively.

In the case of `N=C(N)NCCC[C@H](NC(=O)c1ncccc1O)C(=O)N1CCC[C@H]1C(N)=O` [Compound 16], the results for the Ki on Tryptase [1] (setting [5]) and at Tryptase [1] (setting [6]) were 8 µM and 63 µM, respectively.

For the compound `CN(CC(N)=O)C(=O)[C@H](CCCNC(=N)N)NC(=O)c1c(O)ccc2ccccc12` [Compound 1], the Ki on Tryptase [1] (setting [8]) stood at 3 µM; on Tryptase [1] (setting [9]), 637 µM.

On to `Cc1ccc(C(=O)N[C@@H](CCCNC(=N)N)C(=O)N2CCC[C@H]2C(N)=O)c(O)c1` [Compound 2], for which, at Tryptase [1] (setting [7]), the Ki was > 500 µM.

Consider `N=C(N)NCCC[C@H](NC(=O)c1nc2ccccc2nc1O)C(=O)N1CCC[C@H]1C(N)=O` [Compound 9], for which the inhibition constant Ki stood at 23 µM on Tryptase [1] (setting [5]) and 56 µM at Tryptase [1] (setting [6]).

For `N=C(N)NCCC[C@H](NC(=O)c1ccc2ccccc2c1O)C(=O)N1CCC[C@H]1C(=O)N1CCC(C(N)=O)CC1` [Compound 7], on Tryptase [1] (setting [7]), the Ki is 664 µM.

As to `N=C(N)NCCC[C@H](NC(=O)c1ccc2ccccc2c1O)C(=O)N1CCC[C@H]1C(=O)N[C@@H](Cc1ccccc1)C(N)=O` [Compound 13], the Ki at Tryptase [1] (setting [5]) worked out at 0.6 µM; on Tryptase [1] (setting [6]) it was 110 µM.

In the case of `N=C(N)NCCC[C@H](NC(=O)c1ccc2ccccc2c1O)C(=O)N1CCC[C@H]1C(N)=O` [Compound 3, 1-hydroxy-2-naphthoyl-L-arginyl-L-proline amide], the “effect on 24 hour hyperresponsiveness” value in the test on allergic sheep [2] (24 h after antigen challenge, FIG. 2) is “blocked the 24 hour hyperresponsiveness”. For the same compound, the “PC400, after antigen challenge” value in the test with allergic sheep [2] (drug trial, 24 h after antigen challenge, control 9.1±1.3) is on record as 17.6±3.5 breath units. For the same compound, the “PC400 change relative to baseline” value in the test on allergic sheep [2] (drug trial, after antigen challenge vs. baseline) is on record as “unchanged relative to baseline”. Also, the “PC400, baseline” value with allergic sheep [2] (drug trial, baseline (before antigen challenge), control baseline 22.0±3.7) was found to be 16.0±3.8 breath units. Besides, in the test on allergic sheep [2] (treatment with Compound 3, allergen challenged sheep), the “airway function in allergen challenged sheep” value is recorded as “statistically significant improvement in airway function”. Besides, the “sensitivity to light in the buffer system” value at Tryptase [3] (120 mM NaCl, 2.7 mM KCl, 0.13 mM NaH2PO4, 0.896 mM Na2HPO4, 0.05% Tween-20, pH 7.5) is reported as “less sensitive to light”. The Ki on Tryptase [3] (pH 6.5) came to 14 µM; on Tryptase [3] (pH 7.0), 8 µM; on Tryptase [3] (pH 7.5), 5.4 µM; on Tryptase [3] (pH 8.0), 6.1 µM; on Tryptase [1] (setting [5]), 0.3 µM; on Tryptase [1] (setting [6]) it was 82 µM. Besides, the “effect on early response” value in the test on allergic sheep [4] was “exhibited a tendency to reduce the early response”. In addition, in the test on allergic sheep [4] (FIG. 1), the “effect on late response” value was “attenuated the late response”. Besides, the “late increase in SRL (peak late response above baseline, 6-8 hours)” value in the test on allergic sheep [4] (n=6, mean±SE, control 212±21%, p <0.05 vs. control) was found to be 72±9%. For the same compound, the “early increase in SRL (peak early response above baseline)” value with allergic sheep [4] (n=6, mean±SE, control 374±104%) amounted to 280±39%.

On to `N=C(N)NCCC[C@H](NC(=O)c1c(O)ccc2ccccc12)C(=O)N1CCC[C@H]1C(N)=O` [Compound 15], for which the Ki on Tryptase [1] (setting [7]) turned out to be 0.84 µM.

For the compound `N=C(N)NCCC[C@H](NC(=O)c1cc(-c2ccccc2)ccc1O)C(=O)N1CCC[C@H]1C(N)=O` [Compound 21], the Ki came to 18 µM at Tryptase [1] (setting [5]) and 149 µM at Tryptase [1] (setting [6]).

On to `CN(C)C(=O)[C@@H]1CCCN1C(=O)[C@H](CCCNC(=N)N)NC(=O)c1c(O)ccc2ccccc12` [Compound 5], for which the Ki on Tryptase [1] (setting [7]) was 15 µM.

The Ki is a measure of affinity in units of concentration, obtained from inhibition or displacement.

Values taken from US5525623A, “Compositions and methods for the treatment of immunomediated inflammatory disorders” (Arris Pharmaceutical Corporation, priority 1994, dated 1996).
